Results taken from ChEMBL document CHEMBL4673251, “Fluorinated 2-Arylcyclopropan-1-amines - A new class of sigma receptor ligands” (Bioorg Med Chem, 2020).
The source made the active and inactive calls. The calls are words filed in the database; no cut-off is given here.

Columns and labels:
[1] = target: T1, Sigma intracellular receptor 2 (Rattus norvegicus) (UniProt Q5U3Y7); experiment: Displacement of [3H]-di-o-tolylguanidine from Sigma 2 receptor in rat liver membrane at 1 uM incubated for 120 mins by solid scintillation counting method; assay type: cell membranes; conditions: Cell membrane
T1 sequence (whole entry): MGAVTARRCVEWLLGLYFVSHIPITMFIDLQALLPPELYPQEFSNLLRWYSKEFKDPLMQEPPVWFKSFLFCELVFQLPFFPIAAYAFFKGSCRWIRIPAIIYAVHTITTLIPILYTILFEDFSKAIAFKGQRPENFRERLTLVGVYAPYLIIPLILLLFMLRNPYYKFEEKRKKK

[2] = organism: Sus scrofa; experiment: Displacement of [3H]-(+)-MK-801 from PCP binding site of NMDA receptor in pig brain cortex membranes after 120 mins by solid scintillation counting method; conditions: Cell membrane
[3] = target: T2, Sigma non-opioid intracellular receptor 1 (Cavia porcellus, UniProt Q60492); experiment: Displacement of [3H]-(+)-pentazocine from sigma1 receptor in guinea pig brain membrane incubated for 120 mins by solid scintillation counting method; assay type: cell membranes, Cell membrane
[4] = target: Sigma non-opioid intracellular receptor 1 (Cavia porcellus) (UniProt Q60492); experiment: Displacement of [3H]-(+)-pentazocine from sigma1 receptor in guinea pig brain membrane at 1 uM incubated for 120 mins by solid scintillation counting method; assay type: cell membranes; conditions: Cell membrane
[5] = target: T3, Sigma intracellular receptor 2 (Rattus norvegicus, UniProt Q5U3Y7); experiment: Displacement of [3H]-di-o-tolylguanidine from Sigma 2 receptor in rat liver membrane incubated for 120 mins by solid scintillation counting method; assay type: cell membranes, Cell membrane
T3 sequence (Q5U3Y7 whole entry): T1 sequence (whole entry)

[6] = Dissociation constant, pKa of the compound; assay type: physicochemical
[7] = target: T2, Sigma non-opioid intracellular receptor 1; experiment: Displacement of [3H]-pentazocine from sigma1 receptor in guinea pig brain membrane incubated for 150 mins by scintillation counting method; assay type: cell membranes, Cell membrane
[8] = Displacement of [3H]-di-o-tolylguanidine from Sigma 2 receptor in guinea pig brain membrane incubated for 120 mins by scintillation counting method; assay type: cell membranes, Cavia porcellus, Cell membrane

T2 sequence (Q60492 whole entry): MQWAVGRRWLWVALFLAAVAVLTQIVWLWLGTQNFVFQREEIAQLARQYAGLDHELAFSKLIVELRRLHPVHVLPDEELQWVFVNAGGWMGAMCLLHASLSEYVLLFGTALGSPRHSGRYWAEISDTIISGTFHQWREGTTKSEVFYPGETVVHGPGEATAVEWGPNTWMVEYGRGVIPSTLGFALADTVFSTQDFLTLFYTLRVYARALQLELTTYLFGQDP
Sequence of Sigma non-opioid intracellular receptor 1 (Cavia porcellus) (Q60492 whole entry): as above

SMILES | inhibition [1] [%] | Activity [2] | inhibition [4] [%] | also measured
NCC1CC1(F)c1ccccc1 (stereo not given) | 24 | inactive | – | Ki [3]: 429 nM
COc1ccc(C2(F)CC2N)cc1OC (stereo not given) | – | inactive | 24 | Ki [5]: 3100 nM
FC1(c2ccccc2)CC1NCc1ccccc1 (stereo not given) | 0 | inactive | 0 | –
NCCC1CC1(F)c1ccccc1 (stereo not given) | 5 | inactive | 24 | –
NC1CC1(F)c1ccc(Cl)cc1 (cis isomer) | – | inactive | – | Ki [5]: 2000 nM; Ki [3]: 1500 nM
COc1cccc(C2(F)CC2N)c1.Cl (cis isomer) | – | – | – | pKa [6]: 6.89
Cc1ccc(C2(F)CC2N)cc1 (cis isomer) | – | inactive | 25 | Ki [5]: 3100 nM
COc1cccc(C2(F)CC2N)c1 (cis isomer) | – | inactive | 14 | –
NC1CC1(F)c1ccc(S(F)(F)(F)(F)F)cc1 (cis isomer) | – | inactive | 17 | –
NC1CC1(F)c1cccc([N+](=O)[O-])c1 (cis isomer) | 49 | inactive | 13 | –
NC1CC1(F)c1ccccc1 (cis isomer) | 23 | inactive | 30 | –
CNC1CC1(F)c1ccccc1 (racemic) | 19 | inactive | 0 | –
N[C@@H]1C[C@H]1c1ccccc1.N[C@H]1C[C@@H]1c1ccccc1 (racemic) [TRANYLCYPROMINE] | – | – | – | Ki [5]: 6200 nM; Ki [3]: 1800 nM
COC(=O)C1(c2ccccc2)CC1CNC12CC3CC(CC(C3)C1)C2 (racemic; cis) | – | – | – | Ki [7]: 3 nM; Ki [8]: 23 nM
COC(=O)C1(c2ccccc2)CC1CNC12CC3CC(CC(C3)C1)C2 (racemic; trans) | – | – | – | Ki [7]: 226 nM; Ki [8]: 135 nM
CNC1CC1(F)c1ccccc1 (stereo in doubt; 11a) | 0 | inactive | 0 | –
NC1CC1(F)c1ccc(F)cc1 (stereo in doubt; 17b) [listing 1 of 2 here] | – | – | – | Ki [5]: 2400 nM; Ki [3]: 428 nM
NC1CC1(F)c1ccc(F)cc1 (stereo in doubt; 17b) [listing 2 of 2 here] | – | inactive | – | –
COc1ccc(C2(F)CC2N)cc1 (stereo in doubt; 19b) [listing 1 of 2 here] | – | – | – | Ki [3]: 366 nM
COc1ccc(C2(F)CC2N)cc1 (stereo in doubt; 19b) [listing 2 of 2 here] | 33 | inactive | – | –
NC1CC1(F)c1ccc(C(F)(F)F)cc1 (stereo in doubt; 20b) [listing 1 of 2 here] | – | – | – | Ki [5]: 95 nM; pKa ([6]; read-out: pKa): 7; Ki [3]: 13 nM

SMILES | inhibition [1] [%] | Activity [2] | inhibition [4] [%] | also measured
NC1CC1(F)c1ccc(C(F)(F)F)cc1 (stereo in doubt; 20b) [listing 2 of 2 here] | – | inactive | – | –
NC1(c2ccccc2)CC1(F)c1ccccc1 (stereo in doubt; 24b) [listing 1 of 2 here] | – | – | – | Ki [5]: 7100 nM; Ki [3]: 527 nM
NC1(c2ccccc2)CC1(F)c1ccccc1 (stereo in doubt; 24b) [listing 2 of 2 here] | – | inactive | – | –
NC1CC1(F)c1ccc([N+](=O)[O-])cc1 (stereo in doubt; 25b) | 53 | inactive | 1 | –
NC1CC1(F)c1cccc(F)c1 (stereo in doubt; 27b) | 16 | inactive | 0 | –
NC1CC1(F)c1ccc(F)cc1 (trans isomer) [listing 1 of 2 here] | – | – | – | Ki [5]: 1200 nM
NC1CC1(F)c1ccc(C(F)(F)F)cc1 (trans isomer) [listing 1 of 2 here] | – | – | – | Ki [5]: 911 nM; Ki [3]: 1900 nM
COc1cccc(C2(F)CC2N)c1 (trans isomer) [listing 1 of 2 here] | – | – | – | pKa ([6]; read-out: pKa): 6.63
NC1(c2ccccc2)CC1(F)c1ccccc1 (trans isomer) [listing 1 of 2 here] | – | – | – | Ki [5]: 2300 nM; Ki [3]: 399 nM
COc1ccc(C2(F)CC2N)cc1 (trans isomer) [listing 1 of 2 here] | – | – | – | pKa ([6]; read-out: pKa): 7.5; Ki [3]: 4.8 nM
NC1CC1(F)c1ccc(S(F)(F)(F)(F)F)cc1 (trans isomer) [listing 1 of 2 here] | – | – | – | Ki [3]: 660 nM
COc1ccc(C2(F)CC2N)cc1 (trans isomer) [listing 2 of 2 here] | 32 | inactive | – | –
COc1cccc(C2(F)CC2N)c1 (trans isomer) [listing 2 of 2 here] | – | inactive | 25 | –
Fc1cccc(C2(F)CC2NCc2ccccc2)c1 (trans isomer) | 0 | inactive | 0 | –
NC1(c2ccccc2)CC1(F)c1ccccc1 (trans isomer) [listing 2 of 2 here] | – | inactive | – | –
NC1CC1(F)c1ccc(C(F)(F)F)cc1 (trans isomer) [listing 2 of 2 here] | – | inactive | – | –
NC1CC1(F)c1ccc(F)cc1 (trans isomer) [listing 2 of 2 here] | – | inactive | 27 | –
NC1CC1(F)c1ccc(S(F)(F)(F)(F)F)cc1 (trans isomer) [listing 2 of 2 here] | – | inactive | – | –
NC1CC1(F)c1ccc([N+](=O)[O-])cc1 (trans isomer) | 0 | inactive | 13 | –
NC1CC1(F)c1cccc(F)c1 (trans isomer) | 31 | inactive | 0 | –
NC1CC1(F)c1cccc([N+](=O)[O-])c1 (trans isomer) | 18 | inactive | 16 | –
